Experimental data published in patent US10786475B2, “Method for preventing, treating, or improving fatty liver by administering effective amounts of azelaic acid to a subject” (Korea University Research and Business Foundation, priority 2018, dated 2020).

What was measured:
[1] = tested on: Hepa1c1c-7 cells stimulated by LPS; test: IL-6 and TNF-α gene expression (qPCR) in LPS-treated Hepa1c1c-7 cells; format: cell-based, mouse; conditions: compared with control group
Protocol: 1 μg of RNA extracted from Hepa1c1c-7 hepatocytes was used to synthesize cDNA by using a ReverTra Ace® qPCR RT kit (TOYOBO, Osaka, Japan). More particularly, to increase the efficiency of an RT-PCR reaction, the extracted RNA was treated at 65° C. for 5 minutes, and immediately stored on ice. Afterward, a total of 8 μL of a reaction mixture was prepared with 2 μL of a 4×DNA Master Mix containing a gDNA remover, 0.5 μg of RNA and distilled water (nuclease-free water), and reacted at 37° C. for 5 minutes. And then, a 5×RT Master mix was added to the reaction mixture, reacted at 37° C.-5 min, 50° C.-5 min and 98° C.-5 min to synthesize cDNA.
PCR was performed with the cDNA synthesized by the above-described method using a THUNDERBIRD SYBR qPCR Mix (TOYOBO, Osaka, Japan) and an iQ5 iCycler system (Bio-Rad, California, USA). More particularly, amplification was performed with initial denaturation at 95° C. for 4.5 minutes, and 40 cycles of additional denaturation at the same temperature for 10 seconds, annealing and cooling at 55 to 60° C. for 30 seconds, and elongation at 68° C. for 20 seconds. The expression level of each gene was normalized using GAPDH expression. Primers were designed using the Nucleotide BLAST Software of the National Center for Biotechnology Information (NCBI), and purchased from Bionics (Seoul, Korea).

[2] = tested on: 3T3-L1 cells stimulated by LPS; test: IL-6 and TNF-α gene expression (qPCR) in LPS-treated 3T3-L1 adipose cells; format: cell-based, mouse; conditions: LPS-treated 3T3-L1 cells differentiated into adipose cells, compared with control group
Protocol: 3T3-L1 cells, mouse pre-adipose cells were purchased from the Korean Cell Line Bank (Seoul, Korea). The 3T3-L1 cells were cultured in Dulbecco's modified Eagle's medium (DMEM) supplemented with 10% heat-inactivated bovine calf serum (Gibco, Grand Island, N.Y., USA) and 1% PEST under 5% CO2 at 37° C. The 3T3-L1 pre-adipose cells were seeded on a 6-well plate at 1×10^6 cells/well to differentiate into adipose cells, and cultured to a density of 100%. After 2 days, the cultured 3T3-L1 pre-adipose cells were incubated in DMEM containing 10% fetal bovine serum (FBS) and an MDI solution (0.5 mM IBMX, 0.5 μM dexamethasone and 10 μg/mL insulin) for 3 days. Subsequently, the treated cells were cultured in DMEM containing 10% FBS and 10 μg/mL insulin, and the formation of lipid droplets in cells and the degree thereof were confirmed, and based on this, the differentiation into adipose cells was confirmed. To confirm the expression of IL-6 and TNF-α genes, qRT-PCR was performed by the same methods described in Examples 7-4 and 7-5.

Olfr544 KO mouse = test: Fatty liver inhibitory effect in high-fat diet Olfr544 KO mouse; format: in vivo
Protocol: Mice used in the example, which were an eight-week-old C57BL/6J model, were purchased from Samtako, and Olfr544 KO mice were manufactured by Macrogen based on the C57BL/6J model using a CRISPR/Cas9 system. All experiments performed in the example are compliant to a protocol approved by the Animal Experiment Ethics Committee at Korea University (Protocol No. KUIACUC-20170322-1). The mice were acclimated at 21 to 25° C. under a 50 to 60% relative humidity condition for 12 hours before being used in the experiments, and a total of 18 mice were treated with an AzA diluted with distilled water at 50 mg/kg of body weight and distilled water as a control through oral administration for 6 weeks. The mice used in the experiments were fed a high-fat diet containing 60% fat (D12492, Research Diets, Inc) to induce fatty liver, and then a body weight was measured every week. […] An oxygen consumption amount (VO2) and a carbon dioxide production amount (VCO2) were analyzed using an Oxylet Physiocage System (Panlab/Harvard apparatus, Cornella, Spain) and suiteMETABOLISM (V2.2.01, Panlab) software. A respiratory quotient (RQ) was calculated using the formula VCO2/VO2, and energy expenditure was analyzed using the formula EE=VO2×1.11×(3.815+1.232×RQ). The oxidation of a free fatty acid was calculated using the formula (1.6946×VO2)−(1.7012×VCO2). An AzA (100 mg/kg) was intraperitoneally administered, and then concentration of a glycerol, which is a body fat decomposition marker, was measured. […] To measure glucose resistance and insulin resistance, a glucose and insulin resistance test was performed under a condition, in which glucose ([…]) and insulin (0.35 unit/kg/bw) are administered to a mouse.

Hepa1c1c-7 cells [3] = test: Fatty acid oxidation rate ([1-14C]palmitate) in Hepa1c1c-7 cells; format: cell-based, mouse; conditions: 100 μM AzA, 24 hours, compared with control group
Protocol: Hepa1c1c-7 cells were seeded on a 24-well plate at 5×10^5 cells/mL, cultured for 24 hours, treated with 100 μM of AzA, and then incubated for 24 hours. Afterward, [1-^14C]palmitate was accumulated, the cells were cultured for one hour, and the medium was collected to extract CO2 using NaOH and HCl, followed by measuring ^14CO2 using a liquid scintillation counter. As a positive control, GW7647 (1 μM) was used.

3T3-L1 adipose cells = test: MTT cytotoxicity assay in 3T3-L1 adipose cells; format: cell-based, mouse; conditions: 0 to 500 μM AzA, compared with control group
Protocol: The cytotoxicity test for 3T3-L1 adipose cells was performed by a tetrazolium-based colorimetric (MTT) method. The MTT assay is a method for evaluating cytotoxicity by measuring absorbance at a suitable wavelength (usually at 500 to 600 nm) based on a metabolic process, in which a dehydrogenase in mitochondria of intact cells reduces a yellow water-soluble tetrazolium salt [3-(4,5-dimethylthiazol-2-yl)-2-5-diphenyltetrazolium bromide] (MTT) into a water-insoluble dark violet MTT formazan crystal.

mice fed a high-fat diet = test: Comparison of AzA-added and barley-added high-fat diets in mice; format: in vivo, mouse; conditions: 6 weeks
Protocol: A diet, in which an AzA (0.5 g/kg diet) or 10% (w/w) barley was added to a high-fat diet, was administered to mice for 6 weeks.

Hepa1c1c-7 cells [4] = test: MTT cytotoxicity assay in Hepa1c1c-7 cells; format: cell-based, mouse; conditions: 0 to 500 μM AzA, 24 hours, compared with control group
[5] = Olfr544 KO mouse, HFD and AzA for 6 weeks
[6] = AzA (0.5 g/kg diet) added to high-fat diet
[7] = AzA (0.5 g/kg diet) or 10% (w/w) barley added to high-fat diet, between groups

## O=C(O)CCCCCCCC(=O)O [AzA, nonanedioic acid]
[1]
  IL-6 gene expression: significantly decreased
  TNF-α gene expression: significantly decreased
[2]
  IL-6 gene expression: significantly decreased
Olfr544 KO mouse; KO mouse
  glucose resistance (glucose resistance test): not observed
  insulin resistance (insulin resistance test): not observed
Olfr544 KO mouse; KO mouse, AzA 50 mg/kg/day
  abdominal fat (microCT): no such effects
  total fat amount (microCT): no such effects
Olfr544 KO mouse; KO mouse, AzA 100 mg/kg intraperitoneally
  blood glycerol concentration (body fat decomposition marker): no effect
Olfr544 KO mouse; [5]
  oxidation of free fatty acids (indirect calorimetric analysis): these effects were not shown
  respiratory quotient (indirect calorimetric analysis): these effects were not shown
Hepa1c1c-7 cells [3]
  fatty acid oxidation rate: significantly increased
3T3-L1 adipose cells
  cytotoxicity (MTT assay): toxicity was not exhibited at every concentration
Mice fed a high-fat diet; [6]
  ALT concentration (hepatotoxicity marker): decreased
  LDL cholesterol concentration: significantly decreased
  triglyceride concentration in liver tissue (fatty liver lesion marker): significantly decreased
Mice fed a high-fat diet; [7]
  HDL cholesterol concentration: no differences
  fasting blood glucose concentration: no differences
  total cholesterol concentration: no differences
  triglyceride concentration (blood): no differences
Mice fed a high-fat diet; AzA (0.5 g/kg diet) or 10% (w/w) barley added to high-fat diet, versus high-fat diet group
  body weight: significantly decreased
Hepa1c1c-7 cells [4]
  cytotoxicity (MTT assay): toxicity was not exhibited at every concentration
